{"source": "EPA's ToxRefDB 2", "key": {"mouse": {"test_system": "mouse", "conditions": "Subchronic oral toxicity in rodents, cd1, Feed, dose end: 13 week, group: systemic, systemic / pathology microscopic / liver / lipid deposition"}, "rat [1]": {"test_system": "rat", "conditions": "Subchronic oral toxicity in rodents, sprague dawley, Feed, dose end: 13 week, group: systemic, systemic / pathology gross / kidney / discolored + systemic / in life observation / body weight / body weight + systemic / in life …"}, "dog [2]": {"test_system": "dog", "conditions": "Subchronic oral toxicity in nonrodent, beagle, Feed, dose end: 13 week, group: systemic, systemic / clinical chemistry / albumin-globulin ratio / albumin-globulin ratio + systemic / clinical chemistry / aspartate aminotransferase…"}, "dog [3]": {"test_system": "dog", "conditions": "Chronic toxicity, beagle, Oral, Feed, dose end: 52 week, group: systemic"}, "rat [4]": {"test_system": "rat", "conditions": "Combined chronic toxicity/carcinogenicity, sprague dawley, Oral, Feed, dose end: 104 week, group: systemic"}, "rat [5]": {"test_system": "rat", "conditions": "Prenatal developmental toxicity study, wistar, Oral, Gavage/Intubation, dose end: 16 GD"}, "[6]": {"conditions": "systemic / hematology / [other] / [other] + systemic / hematology / erythroblast / erythroblast + systemic / hematology / monocytes / …"}, "[7]": {"conditions": "systemic / hematology / erythroblast / erythroblast"}, "[8]": {"conditions": "systemic / in life observation / body weight / body weight + systemic / in life observation / body weight / body weight gain + systemic / in…"}, "[9]": {"conditions": "group: developmental, developmental / developmental malformation / kidney / dilated renal pelvis + developmental / developmental malformation / ureter / distended"}, "[10]": {"conditions": "group: maternal, systemic / in life observation / clinical signs / salivation"}}, "data": [{"smiles": "COC(=O)c1ccc(I)cc1S(=O)(=O)[N-]C(=O)Nc1nc(C)nc(OC)n1.[Na+]", "note": "[Iodosulfuron-methyl-sodium]", "values": [{"measurement": "LEL", "setting": "mouse", "value": 139, "unit": "mg/kg/day"}, {"measurement": "LOAEL", "setting": "mouse", "value": 139, "unit": "mg/kg/day"}, {"measurement": "NEL", "setting": "mouse", "value": "< 139", "unit": "mg/kg/day"}, {"measurement": "NOAEL", "setting": "mouse", "value": "< 139", "unit": "mg/kg/day"}, {"measurement": "LEL", "setting": "rat [1]", "value": 347, "unit": "mg/kg/day"}, {"measurement": "LOAEL", "setting": "rat [1]", "value": 347, "unit": "mg/kg/day"}, {"measurement": "LEL", "setting": "dog [2]", "value": 49, "unit": "mg/kg/day"}, {"measurement": "LOAEL", "setting": "dog [2]", "value": 49, "unit": "mg/kg/day"}, {"measurement": "NEL", "setting": "dog [2]", "value": 8.1, "unit": "mg/kg/day"}, {"measurement": "NOAEL", "setting": "dog [2]", "value": 8.1, "unit": "mg/kg/day"}, {"measurement": "LOAEL", "setting": "dog [3]; [6]", "value": 43.7, "unit": "mg/kg/day"}, {"measurement": "NOAEL", "setting": "dog [3]; [6]", "value": 7.25, "unit": "mg/kg/day"}, {"measurement": "LEL", "setting": "dog [3]; [7]", "value": 41.8, "unit": "mg/kg/day"}, {"measurement": "NEL", "setting": "dog [3]; [7]", "value": 7.37, "unit": "mg/kg/day"}, {"measurement": "LOAEL", "setting": "rat [4]; systemic / in life observation / body weight / body weight + systemic / in life observation / body weight / body weight gain", "value": 331, "unit": "mg/kg/day"}, {"measurement": "LEL", "setting": "rat [4]; [8]", "value": 29.7, "unit": "mg/kg/day"}, {"measurement": "NEL", "setting": "rat [4]; [8]", "value": 2.96, "unit": "mg/kg/day"}, {"measurement": "NOAEL", "setting": "rat [4]; [8]", "value": 29.7, "unit": "mg/kg/day"}, {"measurement": "LEL", "setting": "rat [5]; [9]", "value": 100, "unit": "mg/kg/day"}, {"measurement": "LOAEL", "setting": "rat [5]; [9]", "value": 100, "unit": "mg/kg/day"}, {"measurement": "NEL", "setting": "rat [5]; [9]", "value": "< 100", "unit": "mg/kg/day"}, {"measurement": "NOAEL", "setting": "rat [5]; [9]", "value": "< 100", "unit": "mg/kg/day"}, {"measurement": "LEL", "setting": "rat [5]; [10]", "value": 1000, "unit": "mg/kg/day"}, {"measurement": "LOAEL", "setting": "rat [5]; [10]", "value": 1000, "unit": "mg/kg/day"}, {"measurement": "NEL", "setting": "rat [5]; [10]", "value": 315, "unit": "mg/kg/day"}, {"measurement": "NOAEL", "setting": "rat [5]; [10]", "value": 315, "unit": "mg/kg/day"}]}]}
